Measurements: patent US20110312945A1, “CRTH2 MODULATORS” (priority 2008, published 2011)

Columns and labels:
[1] = tested on: DK-PGD2-induced systemic eosinophilia; assay: DK-PGD2-Induced Systemic Eosinophilia in Rats; type: in vivo; details: Rattus norvegicus, Eosinophil; female Sprague-Dawley rats, oral dosing 30 min before intracardiac 10 μg DK-PGD2, blood eosinophils at 60 min
Protocol: DK-PGD2-Induced Systemic Eosinophilia in Rats. Female Sprague-Dawley rats (175-250 g) were dosed orally with test compound (or vehicle). Thirty minutes after dosing, animals were anaesthetized with isoflurane. Following induction of anaesthesia, animals received an intracardiac injection of 10 μg DK-PGD2 in 0.3 ml heparinized (10 U/ml) saline. Control animals received an injection of 0.3 ml heparinized saline. Sixty minutes after the intracardiac injection, animals were again anesthetized with isoflurane and a blood sample was drawn from the abdominal aorta (into heparin) while the rat was anaesthetized but not dead. An aliquot of blood (500 μL) was mixed with an equal volume of 4% dextran (mw 500,000) and the erythrocytes were allowed to settle. A cytospin preparation was made from the resulting leukocyte rich fraction (top) and the cytospin was fixed and stained with Diff-Quick Stain kit (Dade Behring Inc, Newark, Del.). An aliquot of the leukocyte rich fraction was taken for total leukocyte count using flow cytometer (Guava EasyCyte Mini system). Differential leukocyte counts were obtained from the cytospin preparations. Blood eosinophil numbers were determined from the total leukocyte count and the percentage eosinophils.

CRTH2 [2] = target: T1, CRTH2 (Homo sapiens, UniProt Q9Y5Y4); assay: DPBS CD11b Antagonist Assay; type: cell-based; details: polymorphonuclear cells in PBS, eosinophil CD11b expression, challenge with 15R-Methyl-PGD2 (10 nM)
T1 construct: polymorphonuclear cells (0.5 ml; 10^6/ml cells) in PBS containing 0.9 mM CaCl2 and 0.5 mM MgCl2; endogenous in cells; host or cells: polymorphonuclear cells (eosinophils gated by flow cytometry)
T1 sequence (Q9Y5Y4 1-395): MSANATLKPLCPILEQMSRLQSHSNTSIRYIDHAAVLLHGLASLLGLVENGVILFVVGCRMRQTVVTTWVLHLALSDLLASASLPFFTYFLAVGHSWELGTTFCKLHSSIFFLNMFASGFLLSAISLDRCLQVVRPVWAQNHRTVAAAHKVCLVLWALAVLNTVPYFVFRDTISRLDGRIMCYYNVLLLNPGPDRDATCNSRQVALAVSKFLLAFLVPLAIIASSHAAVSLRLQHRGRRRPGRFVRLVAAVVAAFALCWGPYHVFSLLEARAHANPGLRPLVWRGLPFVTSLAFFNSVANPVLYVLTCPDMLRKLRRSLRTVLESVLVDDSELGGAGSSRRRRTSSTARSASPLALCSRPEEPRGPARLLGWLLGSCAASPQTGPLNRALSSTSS
How it was run: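 Human polymorphonuclear cells (10^6/ml, PBS with 0.9 mM CaCl2, 0.5 mM MgCl2) preincubated with compound 10 min at room temperature, then stimulated with 10 nM 15R-methyl-PGD2. Eosinophil CD11b (FITC) measured by flow cytometry, gating on high side scatter and VLA-4; corrected for isotype control.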

CRTH2 [3] = target: T1, CRTH2; assay: Human Whole Blood CD11b Antagonist Assay; type: cell-based; details: eosinophil CD11b expression, challenge with 15R-Methyl-PGD2 (10 nM)
Protocol: Human Whole Blood CD11b Antagonist Assay (modified from Nicholson, et al. Pulmonary Pharmacology and Therapeutics: 20 (2007); 52-59). The potential CRTH2 antagonist activity of certain compounds was tested in human whole blood using an assay that tests the ability of the compounds to block the CD11b expression in eosinophils by 15-R-methyl-PGD2. A CRTH2 antagonist should block CD11b expression by subsequently added 15-Methyl-PGD2. Human whole blood (200 μL) was incubated at 37° C. for 10 minutes in the presence of various concentrations of test compounds before being challenged with the agonist 15R-Methyl-PGD2 (10 nM). Reactions were terminated by the addition of ice-cold PBS+0.5% BSA+2 mMEDTA (1 mL) and centrifugation (300×g for 5 minutes at 4° C.) Cells were then incubated at 4° C. for 10 min in the presence of human IgG. Cells were then incubated for 30-45 min with a mixture of PE-Cy5-labeled mouse anti-human CD16 (10 ul; BD Biosciences) and FITC-labeled mouse anti-human CD11b (10 μL; Beckman Coulter.) After rinsing (1 mL ice-cold PBS+0.5% BSA+2 mMEDTA), red blood cells were lysed by the addition of 1 mL ice-cold H2O to the cell pellet for 30 sec-1 min immediately followed by the addition of 3.5% NaCl (300 μL.) Cells were then rinsed (2x−1 ml ice cold PBS+0.5% BSA+2 mMEDTA) and fixed in PBS containing 1% formaldehyde. The distribution of fluorescence intensities was measured by flow cytometry. Eosinophils were gated out on the basis of their granularity (high side scatter) and absence of CD-16. CD11b was then measured on this eosinophil population on the basis of fluorescence due to FITC.

Compound	IC50 (CRTH2 [2]) [nM]	IC50 (CRTH2 [3]) [nM]	ED50 [1] [mg/kg]
Cc1c(Cc2ccc(S(=O)(=O)N3CCCC3)cc2)c2c(n1CC(=O)O)CCCCC2 [Example I-20, 2-(2-Methyl-3-(4-(pyrrolidin-1-ylsulfonyl)benzyl)-5,6,7,8-tetrahydrocyclohepta[b]pyrrol-1(4H)-yl)acetic acid]	5 to 100	5 to 100	< 1
Cc1c(Cc2ccccc2S(=O)(=O)N2CCOCC2)c2c(n1CC(=O)O)CCCCC2 [Example I-21, 2-(2-Methyl-3-(2-(morpholinosulfonyl)benzyl)-5,6,7,8-tetrahydrocyclohepta[b]pyrrol-1(4H)-yl)acetic acid]	5 to 100	100 to 500	< 1

Continued, in another order:

IC50 (CRTH2 [2]) [nM]	IC50 (CRTH2 [3]) [nM]	Compound	ED50 [1] [mg/kg]
< 5	5 to 100	Cc1c(Cc2ccccc2S(=O)(=O)N2CCOCC2)c2c(n1CC(=O)O)CCC(C)(C)C2 [Example I-17, 2-(2,5,5-Trimethyl-3-(2-(morpholinosulfonyl)benzyl)-4,5,6,7-tetrahydro-1H-indol-1-yl)acetic acid]	< 1
< 5	5 to 100	Cc1c(Cc2ccccc2S(=O)(=O)N2CCOCC2)c2c(n1CC(=O)O)CC(C)(C)CC2=O [Example I-40, 2-(2,6,6-trimethyl-3-(2-(morpholinosulfonyl)benzyl)-4-oxo-4,5,6,7-tetrahydro-1H-indol-1-yl)acetic acid]	< 1
< 5	5 to 100	Cc1c(Cc2ccccc2S(=O)(=O)N2CCCC2)c2c(n1CC(=O)O)CC(C)(C)CC2=O [Example I-43, 2-(2,6,6-trimethyl-4-oxo-3-(2-(pyrrolidin-1-ylsulfonyl)benzyl)-4,5,6,7-tetrahydro-1H-indol-1-yl)acetic acid]	< 1
